{"source": "patent US6461619B1", "about": "(Somerset Pharmaceuticals, Inc., priority 1998, dated 2002)", "key": {"[1]": {"test_system": "second-degree burn wounds", "test": "second-degree burn wound model, epidermal migration (epithelization) assessment", "assay_type": "in vivo, Swine", "settings": "for Percent of wounds completely epithelized / number of wounds healed (completely epithelized) over the number of wounds assessed: pig", "protocol": "The ability of selegiline and desmethylselegiline to assist in the healing of burns was tested using a second-degree burn wound model. In second-degree burns, the entire surface of the epidermis is destroyed. An epidermal covering is regenerated from the remaining epithelial and epidermal cells adjacent to the burns. This phase of the healing process is called epithelization.\nSwine were used for the experimental research animal because their skin has many morphological similarities to human skin. Seven young female specific pathogen free (SPF:Ken-O-Kaw Farms, Windsor, Ill.) pigs weighing 25-30 kg were kept in house for two weeks prior to initiating the experiment. These animals were fed a basal diet ad libitum and housed individually in facilities with controlled temperature (19-21° C.) and lights (12 h/12 h LD).\nExperimental animals were clipped with standard animal clippers on the day of the experiment. The skin on the back and both sides of the animal was prepared for wounding by washing with a non-antibiotic soap and sterile water. Each animal was anesthetized i.m. with ketamine-HCl (20 mg/kg), xylazine (2 mg/kg) and atropine (0.05 mg/kg), followed by mask inhalation of an isoflurane and oxygen combination. Five specifically designed cylindrical brass rods weighing 358 g each were heated in a boiling water bath to 100° C. A rod was removed from the water bath and wiped dry before being applied to the skin surface to prevent water droplets from creating a steam burn on the skin. The brass rod was held at a vertical position on the skin for six seconds with all pressure being supplied by gravity in order to make a burn 8.5 mm diameter×0.8 mm deep. Immediately after burning, the roof of the burn blister was removed with a sterile spatula. The burn wounds were made approximately 2 cm from each other.\nApproximately 90 burn wounds were made on the anterior two-thirds of the animal. The posterior third of the animal cannot be used because of anatomical differences in burn wound healing (a more rapid healing of burns has been observed at that position).\nA total of seven animals were used and a total of fifteen wounds per treatment group were analyzed on each of days 7-12 after wounding. Treatments were coded to maintain blind study compliance. The burn wounds were treated with 25 ug of test article (enough to cover each wound). Treatments were allowed to penetrate into the sites for at least a 20 minute time period. Each treatment was applied within 20 minutes of blister removal and treatment occurred once a day for the first five days.\nBeginning on day seven after wounding (day 0) and each day thereafter for four to six days, five burn wounds and the surrounding normal skin from each treatment area were excised using an electrokeratome. Any specimens that were not excised intact were discarded. The excised wounds and the surrounding normal skin were incubated in 0.5 M NaBr for 24 hours at 37° C. After incubation, the specimens were separated into epidermal and dermal sheets. The epidermis was examined macroscopically for defects in the area of the burn wounds. Epithelization was considered complete if no defect was present (healed). […] The epidermal sheet was placed on cardboard for a permanent record.\nThe number of wounds healed (completely epithelized) were divided by the total number of wounds sampled per day and multiplied by 100."}, "monoamine oxidase B": {"biological_target": "T1, monoamine oxidase B (Homo sapiens, UniProt P27338)", "T1 sequence (P27338 1-520)": "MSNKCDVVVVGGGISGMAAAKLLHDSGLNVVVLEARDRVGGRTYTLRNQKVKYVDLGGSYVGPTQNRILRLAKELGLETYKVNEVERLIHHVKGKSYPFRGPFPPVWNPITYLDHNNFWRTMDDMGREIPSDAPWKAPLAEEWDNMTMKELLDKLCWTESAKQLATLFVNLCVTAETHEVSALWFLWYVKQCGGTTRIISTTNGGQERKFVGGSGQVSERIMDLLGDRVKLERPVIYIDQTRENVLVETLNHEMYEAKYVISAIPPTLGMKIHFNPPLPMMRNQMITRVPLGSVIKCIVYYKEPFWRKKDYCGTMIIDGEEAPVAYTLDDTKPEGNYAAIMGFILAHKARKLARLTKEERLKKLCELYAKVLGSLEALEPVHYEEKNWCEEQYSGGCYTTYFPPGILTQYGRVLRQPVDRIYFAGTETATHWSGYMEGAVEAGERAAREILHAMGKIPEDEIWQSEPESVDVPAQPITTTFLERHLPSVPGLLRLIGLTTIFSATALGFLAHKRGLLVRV", "settings": "background statement; cited from earlier work"}, "MAO-A": {"biological_target": "T2, MAO-A (Homo sapiens, UniProt P21397)", "T2 sequence (P21397 1-527)": "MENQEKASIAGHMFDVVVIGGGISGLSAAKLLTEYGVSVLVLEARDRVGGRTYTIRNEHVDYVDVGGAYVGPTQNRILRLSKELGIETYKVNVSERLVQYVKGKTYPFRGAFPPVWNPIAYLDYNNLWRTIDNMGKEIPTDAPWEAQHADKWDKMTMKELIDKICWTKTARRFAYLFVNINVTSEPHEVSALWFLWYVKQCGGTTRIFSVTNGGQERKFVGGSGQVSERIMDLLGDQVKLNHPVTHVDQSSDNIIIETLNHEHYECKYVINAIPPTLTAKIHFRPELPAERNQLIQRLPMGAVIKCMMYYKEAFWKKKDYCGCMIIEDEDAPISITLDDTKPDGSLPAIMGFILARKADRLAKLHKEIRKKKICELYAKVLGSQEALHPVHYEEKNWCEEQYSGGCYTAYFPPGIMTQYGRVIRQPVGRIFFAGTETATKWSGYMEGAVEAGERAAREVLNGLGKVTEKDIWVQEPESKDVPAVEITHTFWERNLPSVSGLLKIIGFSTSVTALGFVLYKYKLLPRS", "settings": "in comparison to selegiline, background statement; cited from earlier work"}, "[2]": {"settings": "10^-4M topical, day 7 after burning"}, "[3]": {"settings": "10^-4M topical, day 8 after burning"}, "[4]": {"settings": "10^-4M topical, day 9 after burning"}, "[5]": {"settings": "10^-4M topical, day 10 after burning"}, "[6]": {"settings": "10^-4M topical, day 11 after burning"}, "[7]": {"settings": "10^-4M topical, day 12 after burning"}, "[8]": {"settings": "10^-4M topical, day 13 after burning"}, "[9]": {"settings": "10^-6M topical, day 7 after burning"}, "[10]": {"settings": "10^-6M topical, day 8 after burning"}, "[11]": {"settings": "10^-6M topical, day 9 after burning"}, "[12]": {"settings": "10^-6M topical, day 10 after burning"}, "[13]": {"settings": "10^-8M topical, day 7 after burning"}, "[14]": {"settings": "10^-8M topical, day 8 after burning"}, "[15]": {"settings": "10^-8M topical, day 9 after burning"}, "[16]": {"settings": "10^-8M topical, day 10 after burning"}, "[17]": {"settings": "10^-8M topical, day 11 after burning"}, "[18]": {"settings": "10^-8M topical, day 12 after burning"}, "[19]": {"settings": "10^-8M topical, day 13 after burning"}}, "note": "Counter-ions that a name gives are not always drawn."}
{"smiles": "C#CCNC(C)Cc1ccccc1", "note": "(centres unmarked) [desmethylselegiline HCl, desmethylselegiline]", "values": [{"measurement": "Percent of wounds completely epithelized", "setting": "[1]; [2]", "result": "(0%)"}, {"measurement": "number of wounds healed (completely epithelized) over the number of wounds assessed", "setting": "[1]; [2]", "result": " 0/15"}, {"measurement": "Percent of wounds completely epithelized", "setting": "[1]; [3]", "result": "(0%)"}, {"measurement": "number of wounds healed (completely epithelized) over the number of wounds assessed", "setting": "[1]; [3]", "result": " 0/15"}, {"measurement": "Percent of wounds completely epithelized", "setting": "[1]; [4]", "result": "(0%)"}, {"measurement": "number of wounds healed (completely epithelized) over the number of wounds assessed", "setting": "[1]; [4]", "result": " 0/15"}, {"measurement": "Percent of wounds completely epithelized", "setting": "[1]; [5]", "result": "(0%)"}, {"measurement": "number of wounds healed (completely epithelized) over the number of wounds assessed", "setting": "[1]; [5]", "result": " 0/15"}, {"measurement": "Percent of wounds completely epithelized", "setting": "[1]; [6]", "result": 7, "unit": "%"}, {"measurement": "number of wounds healed (completely epithelized) over the number of wounds assessed", "setting": "[1]; [6]", "result": " 1/15"}, {"measurement": "Percent of wounds completely epithelized", "setting": "[1]; 10^-4M topical, day 11 after burning, listed as B-1", "result": "(7%)"}, {"measurement": "Percent of wounds completely epithelized", "setting": "[1]; [7]", "result": 33, "unit": "%"}, {"measurement": "number of wounds healed (completely epithelized) over the number of wounds assessed", "setting": "[1]; [7]", "result": " 5/15"}, {"measurement": "Percent of wounds completely epithelized", "setting": "[1]; 10^-4M topical, day 12 after burning, listed as B-1", "result": "(33%)"}, {"measurement": "Percent of wounds completely epithelized", "setting": "[1]; [8]", "result": 69, "unit": "%"}, {"measurement": "number of wounds healed (completely epithelized) over the number of wounds assessed", "setting": "[1]; [8]", "result": "{fraction (11/16 )}"}, {"measurement": "Percent of wounds completely epithelized", "setting": "[1]; 10^-4M topical, day 13 after burning, listed as B-1", "result": "(69%)"}, {"measurement": "time to complete epithelization compared with other treatment groups", "setting": "[1]; 10^-6 M", "result": "completely epithelized sooner than all other treatment groups"}, {"measurement": "Percent of wounds completely epithelized", "setting": "[1]; [9]", "result": "(0%)"}, {"measurement": "number of wounds healed (completely epithelized) over the number of wounds assessed", "setting": "[1]; [9]", "result": " 0/15"}, {"measurement": "Percent of wounds completely epithelized", "setting": "[1]; [10]", "result": "(0%)"}, {"measurement": "number of wounds healed (completely epithelized) over the number of wounds assessed", "setting": "[1]; [10]", "result": " 0/15"}, {"measurement": "Percent of wounds completely epithelized", "setting": "[1]; [11]", "result": "(0%)"}, {"measurement": "number of wounds healed (completely epithelized) over the number of wounds assessed", "setting": "[1]; [11]", "result": " 0/15"}, {"measurement": "Percent of wounds completely epithelized", "setting": "[1]; [12]", "result": "(0%)"}, {"measurement": "number of wounds healed (completely epithelized) over the number of wounds assessed", "setting": "[1]; [12]", "result": " 0/15"}, {"measurement": "number of wounds healed (completely epithelized) over the number of wounds assessed", "setting": "[1]; 10^-6M topical, day 11 after burning", "result": " 5/15"}, {"measurement": "number of wounds healed (completely epithelized) over the number of wounds assessed", "setting": "[1]; 10^-6M topical, day 12 after burning", "result": " 7/15"}, {"measurement": "number of wounds healed (completely epithelized) over the number of wounds assessed", "setting": "[1]; 10^-6M topical, day 13 after burning", "result": " 6/16"}, {"measurement": "Percent of wounds completely epithelized", "setting": "[1]; [13]", "result": "(0%)"}, {"measurement": "number of wounds healed (completely epithelized) over the number of wounds assessed", "setting": "[1]; [13]", "result": " 0/15"}, {"measurement": "Percent of wounds completely epithelized", "setting": "[1]; [14]", "result": "(0%)"}, {"measurement": "number of wounds healed (completely epithelized) over the number of wounds assessed", "setting": "[1]; [14]", "result": " 0/15"}, {"measurement": "Percent of wounds completely epithelized", "setting": "[1]; [15]", "result": "(0%)"}, {"measurement": "number of wounds healed (completely epithelized) over the number of wounds assessed", "setting": "[1]; [15]", "result": " 0/15"}, {"measurement": "Percent of wounds completely epithelized", "setting": "[1]; [16]", "result": "(0%)"}, {"measurement": "number of wounds healed (completely epithelized) over the number of wounds assessed", "setting": "[1]; [16]", "result": " 0/15"}, {"measurement": "Percent of wounds completely epithelized", "setting": "[1]; [17]", "result": 33, "unit": "%"}, {"measurement": "number of wounds healed (completely epithelized) over the number of wounds assessed", "setting": "[1]; [17]", "result": " 5/15"}, {"measurement": "Percent of wounds completely epithelized", "setting": "[1]; 10^-8M topical, day 11 after burning, listed as B-3", "result": "(33%)"}, {"measurement": "Percent of wounds completely epithelized", "setting": "[1]; [18]", "result": 67, "unit": "%"}, {"measurement": "number of wounds healed (completely epithelized) over the number of wounds assessed", "setting": "[1]; [18]", "result": "{fraction (10/15 )}"}, {"measurement": "Percent of wounds completely epithelized", "setting": "[1]; 10^-8M topical, day 12 after burning, listed as B-3", "result": "(67%)"}, {"measurement": "Percent of wounds completely epithelized", "setting": "[1]; [19]", "result": 67, "unit": "%"}, {"measurement": "number of wounds healed (completely epithelized) over the number of wounds assessed", "setting": "[1]; [19]", "result": "{fraction (40/15 )}"}, {"measurement": "Percent of wounds completely epithelized", "setting": "[1]; 10^-8M topical, day 13 after burning, listed as B-3", "result": "(67%)"}, {"measurement": "percentage of wounds completely epithelized compared with other groups", "setting": "[1]; day thirteen, all concentrations", "result": "higher percentage of wounds completely epithelized on day thirteen"}, {"measurement": "wound crust colour during absorption of applied agent", "setting": "[1]; first three days of treatment, normal again after 15 minutes", "result": "more pronounced"}, {"measurement": "MAO-B inhibitory activity", "setting": "monoamine oxidase B", "result": "reduced MAO-B inhibitory activity in comparison to selegiline"}, {"measurement": "inhibition of MAO-A", "setting": "MAO-A", "result": "decreased to an even greater extent"}]}
